Data as given in patent US10160771B2, “Hepatitis C virus inhibitors and uses thereof in preparation of drugs” (priority 2014, dated 2018).

Experiments:
[1] = system: HCV genotype 1a (HCV-1a) replicon cells; test: HCV genotype 1a replicon luciferase assay (EC50); assay type: cell-based, hepatitis C virus genotype 1a (H77 clone); conditions: Hepatitis C virus, 72 h, 3 days, luciferase (Bright-Glo)
How it was run: (§1)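 EC50 by nonlinear fitting of % inhibition from Bright-Glo luciferase signal after 3-day, 37° C. compound exposure (5-fold, 6 points from 100, 10 or 1 nM; 0.5% DMSO; duplicates). Cells: 1a replicon from H77 (K1691R/K2040R/S2204I) or 1b from Con1 (E1202G/T1280I/K1846T), 8000 per well.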

[2] = Cell Titer-fluor cell activity assay in HCV-1b replicon cells (CC50); assay type: cell-based
How it was run: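 CC50 derived by nonlinear fitting of inhibition % from Cell Titer-fluor signal (405/515 nm, 30 min). Cells: genotype 1b Con1 replicon carrying E1202G, T1280I, K1846T, seeded 8000/well with compound for 3 days, 37 °C, 0.5% DMSO; 6 points, 5-fold dilution, top 100, 10 or 1 nM, duplicates.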

[3] = system: HCV genotype 1b (HCV-1b) replicon cells; test: HCV genotype 1b replicon luciferase assay (EC50); assay type: cell-based, hepatitis C virus genotype 1b (Con1 clone); conditions: Hepatitis C virus, 72 h, 3 days, luciferase (Bright-Glo)
How it was run: as §1

| SMILES | EC50 [1] [nM] | CC50 at 3 days [2] [nM] | EC50 [3] [nM] |
| --- | --- | --- | --- |
| COC(=O)N[C@H](C(=O)N1CCC[C@H]1c1ncc(-c2ccc3c(c2)C(=O)c2cc(-c4cnc(C5C6CCC(C6)[C@H]5C(=O)NCc5cccnc5)[nH]4)ccc2-3)[nH]1)C(C)C (stereo partly drawn) [AA_239] | 1 to 10 | > 1 | 0.001 to 0.1 |
| COC(=O)N[C@H](C(=O)N1CCC[C@H]1c1ncc(-c2ccc3c(c2)[C@@](C)(O)c2cc(-c4cnc(C5C6CCC(C6)[C@H]5C(=O)NCc5cccnc5)[nH]4)ccc2-3)[nH]1)C(C)C (stereo partly drawn) [AA_241_A] | 10 to 100 | > 1 | 0.101 to 1 |
| COC(=O)N[C@H](C(=O)N1CCC[C@H]1c1ncc(-c2ccc(-c3ccc(-c4cnc(C5C6CCC(C6)[C@@H]5c5nc(-c6cccnc6)c[nH]5)[nH]4)cc3)cc2)[nH]1)C(C)C (stereo partly drawn) [AA_242] | 10 to 100 | > 1 | 0.101 to 1 |
| COC(=O)N[C@H](C(=O)N1CCC[C@H]1c1ncc(-c2ccc(-c3ccc(-c4cnc([C@H]5C6CCC(C6)C5C(=O)NCc5cccnc5)[nH]4)cc3)nc2)[nH]1)[C@@H](C)OC (stereo partly drawn) [AA_242_A] | 10 to 100 | > 1 | 0.101 to 1 |
| COC(=O)N[C@H](C(=O)N1CCC[C@H]1c1ncc(-c2ccc(-c3ccc(-c4cnc([C@@H]5C6CCC(C6)C5C(=O)NCc5cccnc5)[nH]4)cc3)nc2)[nH]1)[C@@H](C)OC (stereo partly drawn) [AA_242_B] | 10 to 100 | > 1 | 0.101 to 1 |
| COC(=O)N[C@H](C(=O)N1CCC[C@H]1c1ncc(-c2ccc(-c3ccc(-c4cnc([C@H]5C6CCC(C6)[C@@H]5C(=O)NC(CO)c5ccccn5)[nH]4)cc3)cc2)[nH]1)C(C)C (stereo partly drawn) [AA_243_A] | 10 to 100 | > 1 | 0.001 to 0.1 |
| COC(=O)N[C@H](C(=O)N1CCC[C@H]1c1ncc(-c2ccc(-c3ccc(-c4cnc([C@@H]5C6CCC(C6)[C@H]5C(=O)NC(CO)c5ccccn5)[nH]4)cc3)cc2)[nH]1)C(C)C (stereo partly drawn) [AA_243_B] | 0.101 to 1 | > 1 | 0.001 to 0.1 |
| COC(=O)N[C@H](C(=O)N1CCC[C@H]1c1ncc(-c2ccc(-c3ccc(-c4cnc([C@@H]5[C@H]6CC[C@H](C6)[C@H]5C(=O)N[C@@H](CO)c5cccnc5)[nH]4)cc3)cc2)[nH]1)C(C)C [AA_243_ENDOA2_A] | 1 to 10 | > 1 | 0.001 to 0.1 |
| COC(=O)N[C@H](C(=O)N1CCC[C@H]1c1ncc(-c2ccc(-c3ccc(-c4cnc([C@@H]5[C@H]6CC[C@H](C6)[C@H]5C(=O)N[C@H](CO)c5cccnc5)[nH]4)cc3)cc2)[nH]1)C(C)C [AA_243_ENDOA2_B] | 0.101 to 1 | > 1 | 0.001 to 0.1 |
| COC(=O)N[C@H](C(=O)N1CCC[C@H]1c1ncc(-c2ccc(-c3ccc(-c4cnc([C@H]5C6CCC(C6)[C@@H]5C(=O)NNc5nccnc5Cl)[nH]4)cc3)cc2)[nH]1)C(C)C (stereo partly drawn) [AA_244_A] | 10 to 100 | > 1 | 0.101 to 1 |
| COC(=O)N[C@H](C(=O)N1CCC[C@H]1c1ncc(-c2ccc(-c3ccc(-c4cnc(C5C6CCC(C6)[C@H]5C(=O)NCc5cccnc5C(C)C)[nH]4)cc3)cc2)[nH]1)[C@@H](C)OC (stereo partly drawn) [AA_245_A] | 10 to 100 | > 1 | 0.001 to 0.1 |
| COC(=O)N[C@H](C(=O)N1CCC[C@H]1c1ncc(-c2ccc(-c3ccc(-c4cnc(C5C6CCC(C6)[C@@H]5C(=O)NCc5cccnc5C(C)C)[nH]4)cc3)cc2)[nH]1)[C@@H](C)OC (stereo partly drawn) [AA_245_B] | 10 to 100 | > 1 | 0.101 to 1 |
| COC(=O)N[C@H](C(=O)N1CCC[C@H]1c1ncc(-c2ccc(-c3ccc(-c4cnc(C5C6CCC(C6)[C@@H]5C(=O)Nc5ccccc5)[nH]4)cc3)cc2)[nH]1)[C@@H](C)OC (stereo partly drawn) [AA_246_A] | 10 to 100 | > 1 | 0.001 to 0.1 |
| COC(=O)N[C@H](C(=O)N1CCC[C@H]1c1ncc(-c2ccc(-c3ccc(-c4cnc(C5C6CCC(C6)[C@H]5C(=O)Nc5ccccc5)[nH]4)cc3)cc2)[nH]1)[C@@H](C)OC (stereo partly drawn) [AA_246_B] | 10 to 100 | > 1 | 0.101 to 1 |
| COC(=O)N[C@H](C(=O)N1CCC[C@H]1c1ncc(-c2ccc(-c3ccc(-c4cnc(C5C6CCC(C6)[C@@H]5C(=O)N(C)c5ccccn5)[nH]4)cc3)cc2)[nH]1)[C@@H](C)OC (stereo partly drawn) [AA_247_A] | 0.101 to 1 | > 1 | 0.001 to 0.1 |
| COC(=O)N[C@H](C(=O)N1CCC[C@H]1c1ncc(-c2ccc(-c3ccc(-c4cnc(C5C6CCC(C6)[C@H]5C(=O)N(C)c5ccccn5)[nH]4)cc3)cc2)[nH]1)[C@@H](C)OC (stereo partly drawn) [AA_247_B] | 1 to 10 | > 1 | 0.001 to 0.1 |
| COC(=O)N[C@H](C(=O)N1CCC[C@H]1c1ncc(-c2ccc(-c3ccc(-c4cnc(C5C6CCC(C6)[C@H]5C(=O)NCc5ccncc5)[nH]4)cc3)cc2)[nH]1)[C@@H](C)OC (stereo partly drawn) [AA_248_A] | 10 to 100 | > 1 | 0.101 to 1 |

| SMILES | EC50 [1] [nM] | CC50 at 3 days [2] [nM] | EC50 [3] [nM] |
| --- | --- | --- | --- |
| COC(=O)N[C@H](C(=O)N1CCC[C@H]1c1ncc(-c2ccc(-c3ccc(-c4cnc(C5C6CCC(C6)[C@@H]5C(=O)NCc5ccncc5)[nH]4)cc3)cc2)[nH]1)[C@@H](C)OC (stereo partly drawn) [AA_248_B] | 10 to 100 | > 1 | 0.101 to 1 |
| COC(=O)N[C@H](C(=O)N1CCC[C@H]1c1ncc(-c2ccc(-c3ccc(-c4cnc(C5C6CCC(C6)[C@@H]5C(=O)NCc5cncnc5)[nH]4)cc3)cc2)[nH]1)[C@@H](C)OC (stereo partly drawn) [AA_249_A] | 0.101 to 1 | > 1 | 0.001 to 0.1 |
| COC(=O)N[C@H](C(=O)N1CCC[C@H]1c1ncc(-c2ccc(-c3ccc(-c4cnc(C5C6CCC(C6)[C@@H]5C(=O)NNc5nccnc5Cl)[nH]4)cc3)cc2)[nH]1)[C@@H](C)OC (stereo partly drawn) [AA_250_A] | 10 to 100 | > 1 | 0.101 to 1 |
| COC(=O)N[C@H](C(=O)N1CCC[C@H]1c1ncc(-c2ccc(-c3ccc(-c4cnc(C5C6CCC(C6)[C@H]5C(=O)NNc5nccnc5Cl)[nH]4)cc3)cc2)[nH]1)[C@@H](C)OC (stereo partly drawn) [AA_250_B] | 10 to 100 | > 1 | 1 to 10 |
| COC(=O)N[C@H](C(=O)N1CCC[C@H]1c1ncc(-c2ccc(-c3ccc(-c4cnc(C5C6CCC(C6)[C@H]5C(=O)NC(C)c5cccnc5)[nH]4)cc3)cc2)[nH]1)[C@@H](C)OC (stereo partly drawn) [AA_251_A] | 0.101 to 1 | > 1 | 0.101 to 1 |
| COC(=O)N[C@H](C(=O)N1CCC[C@H]1c1ncc(-c2ccc(-c3ccc(-c4cnc(C5C6CCC(C6)[C@@H]5C(=O)NC(C)c5cccnc5)[nH]4)cc3)cc2)[nH]1)C(C)OC (stereo partly drawn) [AA_251_B] | 1 to 10 | > 1 | 0.101 to 1 |
| COC(=O)N[C@H](C(=O)N1CCC[C@H]1c1ncc(-c2ccc(-c3ccc(-c4cnc(C5C6CCC(C6)[C@@H]5C(=O)NC(C)c5cccnc5)[nH]4)cc3)cc2)[nH]1)[C@@H](C)OC (stereo partly drawn) [AA_251_C] | 10 to 100 | > 1 | 1 to 10 |
| COC(=O)N[C@H](C(=O)N1CCC[C@H]1c1ncc(-c2ccc(-c3ccc(-c4cnc(C5C6CCC(C6)[C@@H]5C(=O)NCc5cccnc5F)[nH]4)cc3)cc2)[nH]1)[C@@H](C)OC (stereo partly drawn) [AA_252_A] | 1 to 10 | > 1 | 0.101 to 1 |
| COC(=O)N[C@H](C(=O)N1CCC[C@H]1c1ncc(-c2ccc(-c3ccc(-c4cnc(C5C6CCC(C6)[C@H]5C(=O)NCc5cccnc5F)[nH]4)cc3)cc2)[nH]1)[C@@H](C)OC (stereo partly drawn) [AA_252_B] | 1 to 10 | > 1 | 0.001 to 0.1 |
| COC(=O)N[C@H](C(=O)N1CCC[C@H]1c1ncc(-c2ccc(-c3ccc(-c4cnc(C5C6CCC(C6)[C@H]5C(=O)N[C@H](C)c5cccnc5)[nH]4)cc3)cc2)[nH]1)[C@@H](C)OC (stereo partly drawn) [AA_253_B] | 10 to 100 | > 1 | 0.101 to 1 |
| COC(=O)N[C@H](C(=O)N1CCC[C@H]1c1ncc(-c2ccc(-c3ccc(-c4cnc(C5C6CCC(C6)[C@@H]5C(=O)NCc5cncc(C(C)C)c5)[nH]4)cc3)cc2)[nH]1)[C@@H](C)OC (stereo partly drawn) [AA_254_A] | 10 to 100 | > 1 | 0.101 to 1 |
| COC(=O)N[C@H](C(=O)N1CCC[C@H]1c1ncc(-c2ccc(-c3ccc(-c4cnc(C5C6CCC(C6)[C@@H]5C(=O)NCc5cccnc5C(F)(F)F)[nH]4)cc3)cc2)[nH]1)[C@@H](C)OC (stereo partly drawn) [AA_255_A] | 10 to 100 | > 1 | 0.001 to 0.1 |
| COC(=O)N[C@H](C(=O)N1CCC[C@H]1c1ncc(-c2ccc(-c3ccc(-c4cnc(C5C6CCC(C6)[C@H]5C(=O)NCc5cccnc5C(F)(F)F)[nH]4)cc3)cc2)[nH]1)[C@@H](C)OC (stereo partly drawn) [AA_255_B] | 10 to 100 | > 1 | 0.001 to 0.1 |
| COC(=O)N[C@H](C(=O)N1CCC[C@H]1c1ncc(-c2ccc(-c3ccc(-c4cnc(C5C6CCC(C6)[C@@H]5C(=O)NCc5cccnc5C5CC5)[nH]4)cc3)cc2)[nH]1)[C@@H](C)OC (stereo partly drawn) [AA_256_A] | 10 to 100 | > 1 | 0.001 to 0.1 |
| COC(=O)N[C@H](C(=O)N1CCC[C@H]1c1ncc(-c2ccc(-c3ccc(-c4cnc(C5C6CCC(C6)[C@@H]5C(=O)NCc5cccnc5OC)[nH]4)cc3)cc2)[nH]1)[C@@H](C)OC (stereo partly drawn) [AA_257_A] | 1 to 10 | > 1 | 0.101 to 1 |
| COC(=O)N[C@H](C(=O)N1CCC[C@H]1c1ncc(-c2ccc(-c3ccc(-c4cnc(C5C6CCC(C6)[C@@H]5C(=O)NNc5cccnc5)[nH]4)cc3)cc2)[nH]1)[C@@H](C)OC (stereo partly drawn) [AA_258_B] | 10 to 100 | > 1 | 1 to 10 |
